{"source": "patent US20090004162A1", "about": "“Hecgf-1 Related Polymorphisms and Applications Thereof” (priority 2005, published 2009)", "key": {"CTL clone RDR173 [1]": {"tested_on": "CTL clone RDR173", "assay": "IFN-γ ELISA: recognition by CTL clone RDR173 of target cells pulsed with long peptide (processing and presentation)", "assay_type": "cell-based, human", "procedure": "FIG. 7. Pulsing target cells with the 23-mer peptide leads to efficient processing and presentation LB-ECGF-1H epitope. CD 14+ cells were pulsed with titrated concentrations of the 11- and 23-mer hECGF-1 peptide for 4 h at 37° C. Target cells (3×10^4) were incubated with CTL clone RDR173 (10^4) for 24 h at 37° C. Release of IFN-γ in the supernatant was measured by ELISA.\nFIG. 8. The LB-ECGF-1H epitope can be processed and presented by various target cells upon pulsing with the 23-mer peptide. HLA-B7-positive EBV-LCL cells (EBV), peripheral blood lymphocytes (PBL), phytohemagglutinin activated T cells (PHA blasts), CD14^+ cells (CD14) and CD19^+ cells (CD19) were pulsed with titrated concentrations of the 23-mer HECGF-1 peptide for 4 h at 37° C. Target cells (3×10^4) were incubated with CTL clone RDR173 (10^4) for 24 h at 37° C. Release of IFN-γ in the supernatant was measured by ELISA.\nThe 23-mer peptide […] containing the epitope (depicted in bold) was synthesized. Target cells were pulsed with titrated concentration of the long peptide for 4 hours at 37° C. and tested for recognition by CTL clone RDR173."}, "CTL clone RDR173 [2]": {"tested_on": "CTL clone RDR173", "assay": "IFN-γ ELISA: recognition of peptide-pulsed donor-derived EBV-LCL cells by CTL clone RDR173", "assay_type": "cell-based, human", "settings": "peptide pulsed on donor-derived EBV-LCL cells 2 h 37° C., coculture 24 h", "procedure": "FIG. 5. CTL clone RDR173 recognizes the minimal epitope RPHAIRRPLAL. (a) Overlapping 9-, 10- and 11-mer peptides (1 μg/ml) were pulsed on donor-derived EBV-LCL cells for 2 h at 37° C. Peptide-pulsed EBV-LCLs were cocultured with CTL clone RDR173 for 24 h. Release of IFN-γ in the supernatant was measured by ELISA. (b) Increasing concentrations of the patient-derived peptide RPHAIRRPLAL (filled symbols) and the donor-derived peptide RPRAIRRPLAL (open symbols) were pulsed on donor-derived EBV-LCL cells for 2 h at 37° C. Peptide-pulsed EBV-LCLs were cocultured with CTL clone RDR173 for 24 h. Release of IFN-γ in the supernatant was measured by ELISA.\nEBV-LCL cells were seeded at 3×10^4 cells/well together with 5×10^3 T cells in 96-well round bottom plate. For blocking studies, target cells were preincubated with antibodies against HLA class I (w6/32), HLA class II (PdV5.2) or HLA-B/C alleles (B1.23.2) for 30 min at room temperature. After 24 h incubation at 37° C., release of IFN-γ in the supernatant was measured using standard ELISA (Sanguin, Amsterdam, the Netherlands)."}}}
{"sequence": "RPAGGARTLRPHAIRRPLALRRA [23-mer peptide]", "values": [{"measurement": "Recognition by CTL clone RDR173 (IFN-γ release) after pulsing with long peptide", "setting": "CTL clone RDR173 [1]; CD14+ cells pulsed 4 h at 37° C., titrated concentrations, FIG. 7", "value": "efficient recognition"}, {"measurement": "Processing and presentation of the epitope by various target cells", "setting": "CTL clone RDR173 [1]; EBV-LCL, PHA blast and CD14+ cells pulsed 4 h at 37° C., FIG. 8", "value": "have the ability to process and present the epitope"}]}
{"sequence": "RPRAIRPLAL [LB-ECGF-1R, donor-derived peptide variant with Arg instead of His]", "values": [{"measurement": "Recognition by CTL clone RDR173 (IFN-γ release)", "setting": "CTL clone RDR173 [2]", "value": "not recognized"}]}
{"sequence": "RPHAIRRPLAL [LB-ECGF-1H]", "values": [{"measurement": "Recognition by CTL clone RDR173 (IFN-γ release)", "setting": "CTL clone RDR173 [2]", "value": "the epitope recognized by CTL clone RDR173"}]}
